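96-well plates; 48 h exposure; 5 concentrations. Endpoints by linear interpolation between flanking doses. Not reached: highest tested concentration assigned. GI50 marks 50% less growth. Definition used: TGI = concentration required for complete inhibition of growth.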
Tests used:
Assay in all cases: NCI anticancer screen, dose series, 48 h
[1] = system: HL-60(TB) leukemia
[2] = system: SR leukemia
[3] = system: CAKI-1 renal
[4] = system: NCI/ADR-RES ovarian
[5] = system: NCI-H226 lung
[6] = system: NCI-H23 lung
[7] = system: OVCAR-8 ovarian
[8] = system: SF-295 CNS
[9] = system: K-562 leukemia
[10] = system: HS 578T breast
[11] = system: LOX IMVI melanoma
[12] = system: SK-MEL-5 melanoma
[13] = system: A498 renal
[14] = system: SN12C renal
[15] = system: SNB-75 CNS
[16] = system: SK-MEL-28 melanoma
[17] = system: EKVX NSCLC
[18] = system: HT29 colon
[19] = system: UACC-62 melanoma
[20] = system: CCRF-CEM leukemia
[21] = system: OVCAR-4 ovarian
[22] = system: HCT-15 colon
[23] = system: MOLT-4 leukemia
[24] = system: RPMI-8226 leukemia
[25] = system: SNB-19 CNS
[26] = system: A549 NSCLC
[27] = system: MALME-3M melanoma
[28] = system: SF-268 CNS
[29] = system: DU-145 prostate
[30] = system: BT-549 breast
[31] = system: ACHN renal
[32] = system: OVCAR-5 ovarian
[33] = system: MDA-MB-231 breast
[34] = system: UACC-257 melanoma
[35] = system: 786-0 renal
[36] = system: MCF7 breast
[37] = system: SW-620 colon
[38] = system: NCI-H460 lung
[39] = system: COLO 205 colon
[40] = system: OVCAR-3 ovarian
[41] = system: M14 melanoma
[42] = system: T-47D breast
[43] = system: KM12 colon
[44] = system: SK-OV-3 ovarian
[45] = system: U251 CNS
[46] = system: IGROV1 ovarian
[47] = system: TK-10 renal
[48] = system: NCI-H522 lung
[49] = system: MDA-MB-435
[50] = system: HOP-62 NSCLC
[51] = system: SK-MEL-2 melanoma
[52] = system: HCT-116 colon
[53] = system: HCC-2998 colon
[54] = system: SF-539 CNS
[55] = system: UO-31 renal
[56] = system: HOP-92 NSCLC
[57] = system: RXF 393 renal
[58] = system: PC-3 prostate

Structure (SMILES): N=C(N)c1ccc(-c2ccc(-c3cc(Cl)cc(Cl)c3)s2)cc1
- GI50 [1]: 1.07 µM
- TGI [1]: 2.8 µM
- GI50 [2]: 0.284 µM
- TGI [2]: > 100 µM

Structure (SMILES): O=C(/C=C/C=C/c1ccccc1)c1ccc(Nc2nc(Nc3ccccc3)nc(Nc3ccccc3)n2)cc1
- GI50 [3]: 16.3 µM
- TGI [3]: > 100 µM
- GI50 [4]: > 100 µM
- TGI [4]: > 100 µM
- GI50 [5]: > 100 µM
- TGI [5]: > 100 µM
- GI50 [6]: > 100 µM
- TGI [6]: > 100 µM
- GI50 [7]: 31.4 µM
- TGI [7]: > 100 µM
- GI50 [8]: 32.5 µM
- TGI [8]: > 100 µM
- GI50 [9]: 7.73 µM
- TGI [9]: 37.2 µM
- GI50 [10]: 29 µM
- TGI [10]: > 100 µM
- GI50 [11]: > 100 µM
- TGI [11]: > 100 µM
- GI50 [12]: 13 µM
- TGI [12]: > 100 µM
- GI50 [13]: 19.8 µM
- TGI [13]: > 100 µM
- GI50 [14]: > 100 µM
- TGI [14]: > 100 µM
- GI50 [15]: 17.8 µM
- TGI [15]: > 100 µM
- GI50 [16]: 46.9 µM
- TGI [16]: > 100 µM
- GI50 [17]: 88.2 µM
- TGI [17]: > 100 µM
- GI50 [18]: > 100 µM
- TGI [18]: > 100 µM
- GI50 [19]: > 100 µM
- TGI [19]: > 100 µM
- GI50 [20]: 19.4 µM
- TGI [20]: > 100 µM
- GI50 [21]: 88.1 µM
- TGI [21]: > 100 µM
- GI50 [22]: > 100 µM
- TGI [22]: > 100 µM
- GI50 [23]: 9.89 µM
- TGI [23]: 35.8 µM
- GI50 [24]: 4.12 µM
- TGI [24]: > 100 µM
- GI50 [25]: > 100 µM
- TGI [25]: > 100 µM
- GI50 [26]: 89.1 µM
- TGI [26]: > 100 µM
- GI50 [27]: > 100 µM
- TGI [27]: > 100 µM
- GI50 [28]: 97 µM
- TGI [28]: > 100 µM
- GI50 [29]: 43.6 µM
- TGI [29]: > 100 µM
- GI50 [30]: > 100 µM
- TGI [30]: > 100 µM
- GI50 [1]: 28.7 µM
- TGI [1]: > 100 µM
- GI50 [31]: > 100 µM
- TGI [31]: > 100 µM
- GI50 [32]: > 100 µM
- TGI [32]: > 100 µM
- GI50 [33]: 34.7 µM
- TGI [33]: > 100 µM
- GI50 [34]: > 100 µM
- TGI [34]: > 100 µM
- GI50 [35]: 45.8 µM
- TGI [35]: > 100 µM
- GI50 [2]: 9.45 µM
- TGI [2]: 92.9 µM
- GI50 [36]: 17.7 µM
- TGI [36]: > 100 µM
- GI50 [37]: > 100 µM
- TGI [37]: > 100 µM
- GI50 [38]: 42.8 µM
- TGI [38]: > 100 µM
- GI50 [39]: 2.16 µM
- TGI [39]: > 100 µM
- GI50 [40]: 47.8 µM
- TGI [40]: > 100 µM
- GI50 [41]: 77.5 µM
- TGI [41]: > 100 µM
- GI50 [42]: 4.58 µM
- TGI [42]: > 100 µM
- GI50 [43]: 57.9 µM
- TGI [43]: > 100 µM
- GI50 [44]: > 100 µM
- TGI [44]: > 100 µM
- GI50 [45]: 63.7 µM
- TGI [45]: > 100 µM
- GI50 [46]: 0.627 µM
- TGI [46]: > 100 µM
- GI50 [47]: > 100 µM
- TGI [47]: > 100 µM
- GI50 [48]: > 100 µM
- TGI [48]: > 100 µM
- GI50 [49]: > 100 µM
- TGI [49]: > 100 µM
- GI50 [50]: > 100 µM
- TGI [50]: > 100 µM
- GI50 [51]: > 100 µM
- TGI [51]: > 100 µM
- GI50 [52]: 12.2 µM
- TGI [52]: > 100 µM
- GI50 [53]: > 100 µM
- TGI [53]: > 100 µM
- GI50 [54]: 61.6 µM
- TGI [54]: > 100 µM
- GI50 [55]: 13.3 µM
- TGI [55]: > 100 µM
- GI50 [56]: 0.241 µM
- TGI [56]: 17.7 µM
- GI50 [57]: 1.62 µM
- TGI [57]: 47.5 µM

Structure (SMILES): COc1cc2c(c(N)c1OC)C(=O)/C(=C/c1cc(C)c(O)c(C)c1)C2
- TGI [58]: > 100 µM
- TGI [3]: > 100 µM
- TGI [4]: > 100 µM
- TGI [5]: > 100 µM
- TGI [6]: > 46.6 µM
- TGI [7]: > 100 µM
- TGI [8]: > 55.6 µM
- TGI [11]: > 100 µM
- TGI [12]: > 32.7 µM
- TGI [13]: > 90.4 µM
- TGI [14]: > 100 µM
- TGI [16]: > 100 µM
- TGI [17]: > 100 µM
- TGI [18]: > 100 µM
- TGI [19]: > 100 µM
- TGI [20]: 11.7 µM
- TGI [21]: > 100 µM
- TGI [22]: > 100 µM
- TGI [23]: > 100 µM
- TGI [25]: > 100 µM
- TGI [26]: > 100 µM
- TGI [28]: > 100 µM
- TGI [29]: 16.9 µM
- TGI [30]: > 100 µM
- TGI [31]: > 100 µM
- TGI [32]: > 100 µM
- TGI [33]: > 100 µM
- TGI [34]: > 100 µM
- TGI [35]: > 100 µM
- TGI [2]: > 100 µM
- TGI [36]: > 100 µM
- TGI [37]: > 100 µM
- TGI [38]: > 57.8 µM
- TGI [39]: > 52.2 µM
- TGI [41]: > 100 µM
- TGI [42]: > 100 µM
- TGI [43]: 1.82 µM
- TGI [44]: > 100 µM
- TGI [45]: > 45.5 µM
- TGI [46]: > 100 µM
- TGI [47]: > 100 µM
- TGI [50]: > 60.2 µM
- TGI [51]: > 95.4 µM
- TGI [52]: 2.24 µM
- TGI [53]: > 100 µM
- TGI [55]: > 100 µM
- TGI [56]: > 100 µM
- TGI [57]: > 100 µM
